Results taken from patent US20240067632A1, “WEE1 Degrading Compounds and Uses Thereof” (Bristol-Myers Squibb Company, priority 2022, published 2024).
pEC50: −log10 of the molar value. Read-outs that look alike come from different tables or passages of the source.

Tests used:
WEE1 = molecular target: T1, WEE1 (Homo sapiens, UniProt P30291+Q96SW2); assay: WEE1-ePL degradation assay (LentiX-WEE1-ePL-GSPT1-ND cells, InCELL Hunter luminescence, 4 h); assay type: cell-based; settings: 293T-LentiX WEE1-ePL cells; for DC50: read-out: 293T-LentiX WEE1-ePL Degradation 4 hr (EC50)
T1 construct: C-terminal ePL-tagged (DiscoverX, Fremont, CA) full-length WEE1 expression construct; expressed in transfected cells; host or cells: LentiX-HEK293T (Invitrogen), lentiviral transduction; co-expressing GSPT1-GN (G576N, lacking the first 158 amino acids)
Outline: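 Degradation EC50 was fitted by a four-parameter logistic model, with the upper limit taken from DMSO wells. Luminescence was read with InCELL Hunter reagent after 30 min at room temperature, following a 4 h, 37° C exposure of 2500 cells/well. Cells were LentiX-HEK293T carrying ePL-tagged full-length WEE1, dosed in 10 points (3-fold) from 1 or 10 uM.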

MKN45 cells = assay: MKN45 cell proliferation assay (Cell-Titer-Glo, 120 h); assay type: cell-based; settings: for pEC50: Homo sapiens, MKN-45, 120 h, Cell-Titer-Glo, read-out: MKN45 Cell Prolif. 120 hr (EC50); for MKN45 Cell Prolif. 120 hr (Ymin-Obs): minimal percent of DMSO control observed in the concentrations tested
Outline: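 Growth inhibition was read as blank-corrected Cell-Titer-Glo luminescence expressed as percent DMSO control after 120 h at 37 C, 400 cells/well. Compounds tested in triplicate as 10-point half-log series from 1 or 10 uM, 0.1% DMSO; four-parameter fit gave EC50, and lowest observed percent control was reported as Ymin-obs.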

[1] = lower limit of the fit (0 = luciferase inhibitor, Ymax = DMSO control)

Compound | 293T-LentiX WEE1-ePL Degradation 4 hr (Ymin) (WEE1; [1]) | DC50 (WEE1) [nM] | pEC50 (MKN45 cells; growth inhibition) | 293T-LentiX WEE1-ePL Degradation 4 hr (Ymin) (WEE1; lower limit of the fit (Ymin=0 luciferase inhibitor, Ymax DMSO control)) | pEC50 (MKN45 cells) | MKN45 Cell Prolif. 120 hr (Ymin-Obs) (MKN45 cells)
COC[C@H]1CC[C@H](c2ccc3cc(CN4CC[C@H](Oc5ccc6c(c5)CN(C5CCC(=O)NC5=O)C6=O)C4)ccc3n2)CC1 (stereo partly drawn) [3-(1-oxo-5-{[(3S)-1-({2-[(1r,4r)-4-(methoxymethyl)cyclohexyl]quinolin-6-yl}methyl)pyrrolidin-3-yl]oxy}-2,3-dihydro-1H-isoindol-2-yl)piperidine-2,6-dione] | 33.24 | 1.57 | 8.59 |  |  | 14.13
O=C1CCC(N2Cc3cc(O[C@H]4CCN(Cc5ccc6nc(N7CCC[C@]78CCOC8)ncc6c5)C4)ccc3C2=O)C(=O)N1 (stereo partly drawn) [3-(5-{[(3S)-1-({2-[(5R)-7-oxa-1-azaspiro[4.4]nonan-1-yl]quinazolin-6-yl}methyl)pyrrolidin-3-yl]oxy}-1-oxo-2,3-dihydro-1H-isoindol-2-yl)piperidine-2,6-dione] | 32.5 | 12.3 | 8.18 |  |  | 6.57
O=C1CCC(N2Cc3cc(O[C@H]4CCN(Cc5ccc6cccnc6n5)C4)ccc3C2=O)C(=O)N1 (stereo partly drawn) [3-(5-{[(3S)-1-[(1,8-naphthyridin-2-yl)methyl]pyrrolidin-3-yl]oxy}-1-oxo-2,3-dihydro-1H-isoindol-2-yl)piperidine-2,6-dione] | 75 | 292 | 5.99 |  |  | 65.94
CC1(C)C[C@H](c2ncc3cc(CN4CC[C@H](Oc5ccc6c(c5)CN([C@H]5CCC(=O)NC5=O)C6=O)C4)ccc3n2)CCO1 [(3S)-3-(5-{[(3S)-1-({2-[(4R)-2,2-dimethyloxan-4-yl]quinazolin-6-yl}methyl)pyrrolidin-3-yl]oxy}-1-oxo-2,3-dihydro-1H-isoindol-2-yl)piperidine-2,6-dione] |  | 32.3 |  | 29.31 | 7.81 | 11.79
CO[C@H]1CC[C@@H](Nc2ccc3cc(CN4CC[C@H](Oc5ccc6c(c5)CN(C5CCC(=O)NC5=O)C6=O)C4)ccc3n2)CC1 (stereo partly drawn) [3-(1-oxo-5-{[(3S)-1-[(2-{[(1s,4s)-4-methoxycyclohexyl]amino}quinolin-6-yl)methyl]pyrrolidin-3-yl]oxy}-2,3-dihydro-1H-isoindol-2-yl)piperidine-2,6-dione] | 29.5 | 6.38 | 8.98 |  |  | 6.285
N#Cc1ccc2cc(CN3CC[C@H](Oc4ccc5c(c4)CN(C4CCC(=O)NC4=O)C5=O)C3)ncc2c1 (stereo partly drawn) [3-{[(3S)-3-{[2-(2,6-dioxopiperidin-3-yl)-1-oxo-2,3-dihydro-1H-isoindol-5-yl]oxy}pyrrolidin-1-yl]methyl}isoquinoline-7-carbonitrile] | 29 | 1.87 | 8.00 |  |  | 8.661
CN(c1ccc2cc(CN3CC[C@H](Oc4ccc5c(c4)CN(C4CCC(=O)NC4=O)C5=O)C3)ccc2n1)C1CCOCC1 (stereo partly drawn) [3-(5-{[(3S)-1-({2-[methyl(oxan-4-yl)amino]quinolin-6-yl}methyl)pyrrolidin-3-yl]oxy}1-oxo-2,3-dihydro-1H-isoindol-2-yl)piperidine-2,6-dione] | 32 | 1.82 | 8.46 |  |  | 8.45
O=C1CCC(N2C(=O)c3ccc(O[C@H]4CCN(Cc5ccnc6ccccc56)C4)cc3C2=O)C(=O)N1 (stereo partly drawn) [2-(2,6-dioxopiperidin-3-yl)-5-{[(3S)-1-[(quinolin-4-yl)methyl]pyrrolidin-3-yl]oxy}-2,3-dihydro-1H-isoindole-1,3-dione] | 38.05 | 1230 | 5.60 |  |  | 48.18
Cc1nc(CN2CC[C@H](Oc3ccc4c(c3)CN(C3CCC(=O)NC3=O)C4=O)C2)cc2ccccc12 (stereo partly drawn) [3-(5-{[(3S)-1-[(1-methylisoquinolin-3-yl)methyl]pyrrolidin-3-yl]oxy}-1-oxo-2,3-dihydro-1H-isoindol-2-yl)piperidine-2,6-dione] | 47.56 | 31 | 5.30 |  |  | 50.77
Cc1ccc2cc(CN3CC[C@H](Oc4ccc5c(c4)CN(C4CCC(=O)NC4=O)C5=O)[C@H]3C)ccc2n1 (stereo partly drawn) [3-(5-{[(2R,3S)-2-methyl-1-[(2-methylquinolin-6-yl)methyl]pyrrolidin-3-yl]oxy}-1-oxo-2,3-dihydro-1H-isoindol-2-yl)piperidine-2,6-dione] | 34 | 16.7 | 6.47 |  |  | 28.935

Now from value to compound, other results behind:

293T-LentiX WEE1-ePL Degradation 4 hr (Ymin) (WEE1; [1]) | DC50 (WEE1) [nM] | pEC50 (MKN45 cells; growth inhibition) | 293T-LentiX WEE1-ePL Degradation 4 hr (Ymin) (WEE1; lower limit of the fit (Ymin=0 luciferase inhibitor, Ymax DMSO control)) | pEC50 (MKN45 cells) | Compound | MKN45 Cell Prolif. 120 hr (Ymin-Obs) (MKN45 cells)
28.5 | 16 | 8.06 |  |  | O=C1CCC(N2Cc3cc(O[C@H]4CCN(Cc5ccc6nc([C@H]7CCCOC7)ncc6c5)C4)ccc3C2=O)C(=O)N1 (stereo partly drawn) [3-(5-{[(3S)-1-({2-[(3R)-oxan-3-yl]quinazolin-6-yl}methyl)pyrrolidin-3-yl]oxy}-1-oxo-2,3-dihydro-1H-isoindol-2-yl)piperidine-2,6-dione] | 6.66
30.295 | 5.32 | 7.61 |  |  | O=C1CCC(N2Cc3cc(O[C@H]4CCN(Cc5cc6cccc(F)c6cn5)C4)ccc3C2=O)C(=O)N1 (stereo partly drawn) [3-(5-{[(3S)-1-[(8-fluoroisoquinolin-3-yl)methyl]pyrrolidin-3-yl]oxy}-1-oxo-2,3-dihydro-1H-isoindol-2-yl)piperidine-2,6-dione] | 10.49
55 | 28.8 | < 5.00 |  |  | O=C1CCC(N2Cc3cc(O[C@H]4CCN(Cc5ccc6ccc(=O)oc6c5)C4)ccc3C2=O)C(=O)N1 (stereo partly drawn) [3-(1-oxo-5-{[(3S)-1-[(2-oxo-2H-chromen-7-yl)methyl]pyrrolidin-3-yl]oxy}-2,3-dihydro-1H-isoindol-2-yl)piperidine-2,6-dione] | 85.765
52 | 24.2 | < 5.00 |  |  | CN1CC(=O)Oc2cc(CN3CC[C@H](Oc4ccc5c(c4)CN(C4CCC(=O)NC4=O)C5=O)C3)ccc21 (stereo partly drawn) [3-(5-{[(3S)-1-[(4-methyl-2-oxo-3,4-dihydro-2H-1,4-benzoxazin-7-yl)methyl]pyrrolidin-3-yl]oxy}-1-oxo-2,3-dihydro-1H-isoindol-2-yl)piperidine-2,6-dione] | 91.915
29.67 | 8.11 | 7.48 |  |  | O=C1CCC(N2Cc3cc(O[C@H]4CCN(Cc5ccc6nc(C(F)(F)F)ncc6c5)C4)ccc3C2=O)C(=O)N1 (stereo partly drawn) [3-(1-oxo-5-{[(3S)-1-{[2-(trifluoromethyl)quinazolin-6-yl]methyl}pyrrolidin-3-yl]oxy}-2,3-dihydro-1H-isoindol-2-yl)piperidine-2,6-dione] | 14.74
34.11 | 39.9 | 6.26 |  |  | O=C1CCC(N2Cc3cc(O[C@H]4CCN(Cc5cc6cnccc6cn5)C4)ccc3C2=O)C(=O)N1 (stereo partly drawn) [3-(5-{[(3S)-1-[(2,6-naphthyridin-3-yl)methyl]pyrrolidin-3-yl]oxy}-1-oxo-2,3-dihydro-1H-isoindol-2-yl)piperidine-2,6-dione] | 24.28
42 | 60.1 | 5.69 |  |  | O=C1CCC(N2Cc3cc(O[C@H]4CCN(Cc5cnc6c(c5)CCO6)C4)ccc3C2=O)C(=O)N1 (stereo partly drawn) [3-(5-{[(3S)-1-({2H,3H-furo[2,3-b]pyridin-5-yl}methyl)pyrrolidin-3-yl]oxy}-1-oxo-2,3-dihydro-1H-isoindol-2-yl)piperidine-2,6-dione] | 40.58
43.98 | 13.3 | 6.78 |  |  | O=C1CCC(N2Cc3cc(O[C@H]4CCN(Cc5cnc6ccc(F)c(F)c6c5)C4)ccc3C2=O)C(=O)N1 (stereo partly drawn) [3-(5-{[(3S)-1-[(5,6-difluoroquinolin-3-yl)methyl]pyrrolidin-3-yl]oxy}-1-oxo-2,3-dihydro-1H-isoindol-2-yl)piperidine-2,6-dione] | 44.73
30.3 | 3.81 | 7.65 |  |  | Cc1ccc2cc(CN3CC[C@H](Oc4ccc5c(c4)CN(C4CCC(=O)NC4=O)C5=O)C3)ccc2n1 (stereo partly drawn) [3-(5-{[(3S)-1-[(2-methylquinolin-6-yl)methyl]pyrrolidin-3-yl]oxy}-1-oxo-2,3-dihydro-1H-isoindol-2-yl)piperidine-2,6-dione] | 13.85
30 | 2.13 | 8.39 |  |  | O=C1CC[C@H](N2Cc3cc(O[C@H]4CCN(Cc5ccc6nc([C@@H]7CCOC7)ccc6c5)C4)ccc3C2=O)C(=O)N1 [(3S)-3-(1-oxo-5-{[(3S)-1-({2-[(3S)-oxolan-3-yl]quinolin-6-yl}methyl)pyrrolidin-3-yl]oxy}-2,3-dihydro-1H-isoindol-2-yl)piperidine-2,6-dione] | 9.489
